Experimental data from paper PMC10978252 (Journal of medicinal chemistry, 2024).
“Also recorded” adds a separate entry of the source.

How the values were obtained:
HIV-Nef [1] = target: T1, HIV-Nef (Human immunodeficiency virus type 1, UniProt P03406); assay type: cell-based, HIV-1; settings: for Nef inhibitory potency, in words (relative to parent or comparator) / Nef IC50: 24 h; for Nef IC50: HIV ΔGPE transduced primary CD4+ T cells, upper limit of assay 1000 nM; for restoration of MHC-I levels on infected (GFP+) cells: ΔGPE transduced 48 h then treated 24 h, compared to uninfected (GFP-) cells
T1 sequence (P03406 2-206): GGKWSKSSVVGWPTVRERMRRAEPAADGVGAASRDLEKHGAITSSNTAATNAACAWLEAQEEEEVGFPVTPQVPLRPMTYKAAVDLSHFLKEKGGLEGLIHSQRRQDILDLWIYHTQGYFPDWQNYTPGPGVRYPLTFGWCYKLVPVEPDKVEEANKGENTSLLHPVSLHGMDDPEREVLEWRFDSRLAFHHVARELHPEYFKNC

V-ATPase [2] = target: V-ATPase (Homo sapiens, UniProt P27449); assay: cell-based; assay type: cell-based; settings: for V-ATPase inhibition (Lysotracker), in words / Lysotracker IC50: 24 h; for Lysotracker IC50: lysosomal neutralization / V-ATPase inhibition
primary CD4+ T cells [3] = assay: 72 h viability
HIV-Nef [4] = target: T1, HIV-Nef; settings: cited from earlier work; for MHC-I HLA-A2 restoration in HIV-infected primary T cells, side-by-side assays: B9 up to more than 10μM, CMA nanomolar
V-ATPase [5] = settings: cited from earlier work
primary CD4+ T cells [6] = assay: 24 h viability
MHC-I HLA-A2 = assay type: cell-based, human; settings: ΔGPEN; treated 24 h
[7] = test system: HIV-1 infected CD4+ T cells; settings: single digit micromolar concentrations; cited from earlier work
[8] = test system: Nef overexpressing HEK293T cells; settings: single digit micromolar concentrations; cited from earlier work
Nef = settings: cited from earlier work

Sequence of V-ATPase (Homo sapiens, UniProt P27449) (P27449 whole entry, looked up): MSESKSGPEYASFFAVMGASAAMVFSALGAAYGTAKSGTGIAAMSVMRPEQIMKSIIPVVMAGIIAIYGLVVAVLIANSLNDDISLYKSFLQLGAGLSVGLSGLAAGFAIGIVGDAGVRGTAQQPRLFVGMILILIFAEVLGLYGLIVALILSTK

CO/C1=C\C(C)=C\[C@@H](C)[C@@H](O)[C@@H](C)C/C(C)=C/C=C/[C@H](OC)[C@@H]([C@@H](C)[C@@H](O)[C@H](C)[C@H]2C[C@@H](OC)[C@H](C)[C@@H](C(C)C)O2)OC1=O [compound 10]
Nef inhibitory potency, in words (relative to parent or comparator) (HIV-Nef [1]): decreased potency

C=C/C=C/C(=O)O[C@@H]1C[C@](O)([C@@H](C)[C@H](O)[C@H](C)[C@H]2OC(=O)/C(OC)=C/C(C)=C/[C@@H](C)[C@@H](O)[C@@H](C)C/C(C)=C/C=C/[C@@H]2OC)O[C@H](C(C)C)[C@H]1C [compound 16]
Nef inhibitory potency, in words (relative to parent or comparator) (HIV-Nef [1]): decreased potency; also recorded: improved potency compared to 14 or 15

C/C=C/[C@H]1O[C@@](O)([C@@H](C)[C@H](O)[C@H](C)[C@H]2OC(=O)/C(OC)=C/C(C)=C/[C@@H](C)[C@@H](O)[C@@H](C)[C@@H](O)[C@H](C)C/C(C)=C/C=C/[C@@H]2OC)C[C@@H](O[C@H]2C[C@@H](O)[C@H](OC(N)=O)[C@@H](C)O2)[C@@H]1C [compound 22, concanamycin B, reference compound]
V-ATPase inhibition (Lysotracker), in words (V-ATPase [2]): even greater decrease in V-ATPase inhibitory potency | decrease in Nef inhibitory potency compared to CMA (1) (HIV-Nef [1]; vs CMA): ~10 fold

CO/C1=C\C(C)=C\[C@@H](C)[C@@H](O)[C@@H](C)C/C(C)=C/C=C/[C@H](OC)[C@@H]([C@@H](C)[C@@H](O)[C@H](C)[C@H]2C=C(O)[C@H](C)[C@@H](C(C)C)O2)OC1=O [compound 11]
Nef inhibitory potency, in words (relative to parent or comparator) (HIV-Nef [1]): decreased potency

C=CC(C)C(OC(=O)[C@@H](C)[C@H](O)[C@H](C)[C@H]1OC(=O)/C(OC)=C/C(C)=C/[C@@H](C)[C@@H](O)[C@@H](C)C/C(C)=C/C=C/[C@@H]1OC)C(C)C (stereo partly drawn) [compound 12]
V-ATPase inhibition (Lysotracker), in words (V-ATPase [2]): Dramatic reductions | toxicity, in words (primary CD4+ T cells [3]): Dramatic reductions | decrease in Nef potency compared to 2 (HIV-Nef [1]; vs Baf A1): 26 fold

bafilomycin D [Baf D]
Nef inhibition, in words (HIV-Nef [4]): poor inhibitor | V-ATPase inhibition, in words (V-ATPase [5]): poor inhibitor

CO/C1=C\C(C)=C\[C@@H](C)C(=O)[C@@H](C)C/C(C)=C/C=C/[C@H](OC)[C@@H]([C@@H](C)[C@@H](O)[C@H](C)[C@@]2(O)CC(=O)[C@H](C)[C@@H](C(C)C)O2)OC1=O [compound 21]
Lysotracker IC50 (V-ATPase [2]): above the activity threshold | Nef IC50 (HIV-Nef [1]): above the activity threshold

CO/C1=C\C(C)=C\[C@@H](C)[C@@H](O)[C@@H](C)C/C(C)=C/C=C/[C@H](OC)[C@@H]([C@@H](C)[C@@H](O)[C@H](C)[C@H]2C[C@@H](O)[C@H](C)[C@@H](C(C)C)O2)OC1=O [compound 9, 19-deoxy Baf A1]
Nef inhibitory potency, in words (relative to parent or comparator) (HIV-Nef [1]): decreased potency

C/C=C/[C@H]1O[C@@H]([C@@H](C)[C@H](O)[C@H](C)[C@H]2OC(=O)/C(OC)=C/C(C)=C/[C@@H](C)[C@@H](O)[C@@H](CC)[C@@H](O)[C@H](C)C/C(C)=C/C=C/[C@@H]2OC)C[C@@H](O)[C@@H]1C [compound 38, 21-deoxy CMF]
Nef inhibitory potency, in words (relative to parent or comparator) (HIV-Nef [1]): no change in potency

C[C@@H]1C[C@H](C)C[C@H](C)[C@@H](O)CC(=O)O[C@H]([C@@H]2CCC[C@H]2C(=O)O)C/C=C/C=C(/C#N)[C@H](O)[C@@H](C)C1 [S1, borrelidin]
toxicity at 24 h, in words (primary CD4+ T cells [6]): toxic at 24-hrs

C/C=C/[C@H]1O[C@@](O)([C@@H](C)[C@H](O)[C@H](C)[C@H]2OC(=O)/C(OC)=C/C(C)=C/[C@@H](C)[C@@H](O)[C@@H](CC)[C@@H](OC(C)=O)[C@H](C)C/C(C)=C/C=C/[C@@H]2OC)C[C@@H](O[C@H]2C[C@@H](OC(C)=O)[C@H](OC(N)=O)[C@@H](C)O2)[C@@H]1C [compound 33, 3’,9-diacetyl CMA]
MHC-I surface levels in cells lacking Nef (MHC-I HLA-A2): did not substantially alter MHC-I surface levels | restoration of MHC-I levels on infected (GFP+) cells (HIV-Nef [1]): restored MHC-I levels

CC[C@H](C)C(=O)O[C@H]1C[C@@H](C)C=C2C=C[C@H](C)[C@H](CC[C@@H]3C[C@@H](O)CC(=O)O3)[C@H]21 [Lovastatin]
surface expression of MHC-1 and CD4 [7]: increases surface expression | surface expression of SERINC5 [8]: increases surface expression | MHC-I HLA-A2 restoration in HIV-infected primary T cells, side-by-side assays (HIV-Nef [4]): partially restored | concentration for partial MHC-I restoration, relative to CMA (HIV-Nef [4]): 2,000 fold

CCCCCCCCC(=O)O[C@@H]1C[C@](O)([C@@H](C)[C@H](O)[C@H](C)[C@H]2OC(=O)/C(OC)=C/C(C)=C/[C@@H](C)[C@@H](O)[C@@H](C)C/C(C)=C/C=C/[C@@H]2OC)O[C@H](C(C)C)[C@H]1C [compound 15]
Nef inhibitory potency, in words (relative to parent or comparator) (HIV-Nef [1]): decreased potency; also recorded: opposite effect

CO/C1=C\C(C)=C\[C@@H](C)[C@@H](O)[C@@H](C)C/C(C)=C/C=C/[C@H](OC)[C@@H]([C@@H](C)[C@@H](O)[C@H](C)[C@@]2(OC)C[C@@H](O)[C@H](C)[C@@H](C(C)C)O2)OC1=O [compound 8]
Nef inhibitory potency, in words (relative to parent or comparator) (HIV-Nef [1]): decreased potency

CO/C1=C\C(C)=C\[C@@H](C)[C@@H](O)[C@@H](C)C/C(C)=C/C=C/[C@H](OC)[C@@H]([C@@H](C)[C@@H](O)[C@H](C)[C@@]2(O)C[C@@H](O[C@@H]3O[C@@H](C)[C@H](O)[C@@H](O)[C@H]3OC)[C@H](C)[C@@H](C(C)C)O2)OC1=O [compound 18, leucanicidin, reference compound]
toxicity, in words (primary CD4+ T cells [3]): significantly more toxic

C/C=C/[C@H]1O[C@@](O)([C@@H](C)[C@H](O)[C@H](C)[C@H]2OC(=O)/C(OC)=C/C(C)=C/[C@@H](C)[C@@H](O)[C@@H](C)[C@@H](OC(C)=O)[C@H](C)C/C(C)=C/C=C/[C@@H]2OC)C[C@@H](O[C@H]2C[C@@H](OC(C)=O)[C@H](OC(N)=O)[C@@H](C)O2)[C@@H]1C [compound 31, 3’,9-diacetyl CMB]
toxicity, in words (primary CD4+ T cells [3]): reducing toxicity

C/C=C/[C@H]1O[C@@](O)([C@@H](C)[C@H](O)[C@H](C)[C@H]2OC(=O)/C(OC)=C/C(C)=C/[C@@H](C)[C@@H](O)[C@@H](CC)[C@@H](O)[C@H](C)C/C(C)=C/C=C/[C@@H]2OC)C[C@@H](O[C@H]2C[C@@H](O)[C@H](OC(N)=O)[C@@H](C)O2)[C@@H]1C [compound 1, concanamycin A, reference compound]
IC50 (V-ATPase [2]): 1.7 nM | MHC-I surface levels in cells lacking Nef (MHC-I HLA-A2): did not substantially alter MHC-I surface levels | MHC-I HLA-A2 restoration in HIV-infected primary T cells, side-by-side assays (HIV-Nef [4]): near-fully restore | binding between Nef and CMA (Nef): no binding | restoration of MHC-I levels on infected (GFP+) cells (HIV-Nef [1]): restored MHC-I levels

CO/C1=C\C(C)=C\[C@@H](C)C(=O)[C@@H](C)C/C(C)=C/C=C/[C@H](OC)[C@@H]([C@@H](C)[C@@H](O)[C@H](C)[C@@]2(O)C[C@@H](O)[C@H](C)[C@@H](C(C)C)O2)OC1=O [compound 20]
Lysotracker IC50 (V-ATPase [2]): above the activity threshold | Nef inhibitory potency, in words (relative to parent or comparator) (HIV-Nef [1]): reduced activity at all concentrations tested | Nef IC50 (HIV-Nef [1]): above the activity threshold

CCCCC(=O)O[C@@H]1C[C@](O)([C@@H](C)[C@H](O)[C@H](C)[C@H]2OC(=O)/C(OC)=C/C(C)=C/[C@@H](C)[C@@H](O)[C@@H](C)C/C(C)=C/C=C/[C@@H]2OC)O[C@H](C(C)C)[C@H]1C [compound 14]
Nef inhibitory potency, in words (relative to parent or comparator) (HIV-Nef [1]): decreased potency; also recorded: opposite effect

C/C=C/C=C/[C@H]1O[C@@](O)([C@@H](C)[C@H](O)[C@H](C)[C@H]2OC(=O)/C(OC)=C/C(C)=C/[C@@H](C)[C@@H](O)[C@@H](C)C/C(C)=C/C=C/[C@@H]2OC)C[C@@H](O[C@H]2C[C@@H](O)[C@H](O)[C@@H](C)O2)[C@@H]1C [compound 19, PC-766B, reference compound]
toxicity, in words (primary CD4+ T cells [3]): significantly more toxic

C/C=C/[C@H]1O[C@@H]([C@@H](C)[C@H](O)[C@H](C)[C@H]2OC(=O)/C(OC)=C/C(C)=C/[C@@H](C)[C@@H](O)[C@@H](CC)[C@@H](O)[C@H](C)C/C(C)=C/C=C/[C@@H]2O)C[C@@H](O)[C@@H]1C [compound 39, 21-deoxy-16-hydroxy CMF]
reduction of Nef inhibitory activity compared to CMF (24) (HIV-Nef [1]; vs CMF): over 200 fold
